Experiment [1] deals with human periodontal ligament (HPDL) cells. The experiment is described as follows: ALP inducing activity of HPDL cells on cell culture system. It is filed as cell-based. Conditions: for ALP activity of HPDL cells (porcine sheath proteins and synthetic peptides): 50 μg/ml protein or peptide, TGF-β1 50 ng/ml, BMP-2 500 ng/ml, 10 nM 1α-25dihydroxy-Vitamin D3. The text has this:
(§1) Human periodontal ligament (HPDL) cells were obtained according to the method of Somerman et al., (1988) from healthy premolars which were extracted from the patients for orthodontic reasons. The cells were precultured for 4-6 passages with a-MEM medium to establish the primary cell line. The cells were maintained in the alpha modification of Eagle's medium (α-MEM; Life Technologies, Grand Island, N.Y., USA) containing 10% fetal bovine serum (FBS; Asahi Technoglass, Chiba, Japan) and 1% antibiotics (100 U/ml of Penicillin-G and 100 μg/ml of Streptomycin sulfate; Gibco BRL, Grand Island, N.Y., USA) at 37° C. in a humidified 5% CO2 atmosphere. The ST2 cells (Riken Cell Bank, Tsukuba, Japan), an osteoblast-like mouse bone marrow stromal cell line, were cultured under the same conditions.
HPDL cells were distributed in 96-well plates at a density of approximately 5×10^5 cells per a well and incubated for 24 h. The growth medium was then changed to contain 10 nM of 1α-25dihydroxy-Vitamin D3 (CALBIOCHEM, La Jolla, Calif.) and 50 μg/ml (final concentration) of fractionated enamel protein samples or synthesized peptides dissolved in ultrapure water. After 96 additional hours of incubation, the cells were washed once with PBS, and ALP activity was determined after a 10 min incubation at 37° C. in 10 mM p-nitrophenylphosphate (substrate) in 100 mM 2-amino-2-methyl-1,3-propanediol-HCl buffer (pH 10.0) containing 5 mM MgCl2. After adding 0.2 M NaOH, which stopped the reaction, the absorbance at 405 nm was read on a plate reader.
HPDL cells of approximately 5×10^5 cells per well were distributed in 96-well plates and incubated for 24 h. The growth medium was then changed to contain 10 nM of 1α-25dihydroxy-Vitamin D3 and 50 μg/ml (final concentration) of purified sheath protein or synthesized peptide. After 96 additional hours of incubation, ALP activity was determined using p-nitrophenylphosphate as a substrate.
The bioactivities of these synthetic peptides were tested their cytodifferentiation activity of HPDL cells and ST2 cells by determination of increasing ALP inducing activity on cell culture system. When these peptides applied in cell culture system, the concentration of their peptides was employed around 1 ng/ml. In the case of TGF-1, the concentration was 10 ng/ml.
Normal human periodontal ligament fibroblasts were maintained in an α-minimal essential medium (α-MEM) containing 10% fetal bovine serum, either with or without 10 nM 1α-25dihydroxy-vitamin D3 and 1% antibiotics (100 U/mL of penicillin G and 100 μg/mL of streptomycin sulfate) at 37° C. in a humidified atmosphere of air containing 5% CO2. Another cell line, ST2 cells, was obtained from an osteoblast-like mouse bone marrow stromal cell line. These cells were cultured in the same conditions as those described above.
The ALP inducing activities of synthetic peptides using the cell culture of HPDL cells and ST2 cells were examined. The HPDL cells were distributed in 96-well plates at a density of approximately 5×10^5 cells per well and incubated for 24 h. The medium was then changed to α-MEM containing 10 nM of 1α-25dihydroxy-vitamin D3 and either synthetic peptides or growth factors dissolved in ultra-pure water. After 96 h of incubation, the cells were washed once with phosphate-buffered saline, and 10 mM ρ-nitrophenylphosphate in 100 mM 2-amino-2-methel-1,3-propanediol-HCl buffer (pH 10.0) containing 5 mM MgCl2 was added. The ALP activity was determined after 10 min incubation at 37° C. and the absorbance at 405 nm was read using a plate reader, after adding 0.2 M NaOH to stop the reaction. […] When the synthetic peptides were applied in the cell culture system, their final concentrations were 25 or 50 μg/mL. A TGF-β1 receptor inhibitor (SB431542, 10 μM) was applied to the HPDL cell culture system to examine their influence relative to the ALP inducing activity of the synthetic peptides.

The next experiment concerns HPDL cells. The experiment in a line: Mineralization activity of HPDL cells (alizarin red S staining, calcium content). It is filed as cell-based, human. The conditions noted are these: 30 days culture; 1 μg/ml of samples; differentiation medium. The procedure:
The HPDL cells were plated in 24-well plates at an initial density of 1×10^5 cells/well. After 24 h of incubation, the medium was replaced with growth medium containing 50 μM ascorbic acid, 10 mM β-glycerophosphate, and 10 nM 1α,25-dihydroxyvitamin D3 (differentiation medium) and 1 μg/ml of samples. The medium was changed every 72 h. The cells were maintained for 30 days and then the medium was discarded.
The compartments of cells were fixed in 100% methanol, stained with alizarin red S for 10 min, then washed with ultrapure water and photographed to examine the biomineralization activity. The staining solution was 1% alizarin red S (sodium alizarin sulfonate) (Sigma) dissolved in ultrapure water and adjusted to pH 6.4 with 0.1N ammonium hydroxide.
For measuring the calcium content, the compartments of cells were dissolved by 0.5N hydrochloric acid. The resulting solution was measured by a Calcium C-test kit and protocol (Wako Pure Chemical Industries Ltd, Osaka, Japan). The absorbance at 570 nm was read on a plate reader.
The HPDL cells were plated in 24-well plates at an initial density of 1×10^5 cells/well. After 24 h of incubation, the medium was replaced with growth medium containing 50 μM ascorbic acid, 10 mM β-glycerophosphate, and 10 nM 1α,25-dihydroxyvitamin D3 (differentiation medium) and 1 μg/ml of samples. The medium was changed every 72 h and the cells were maintained for 30 days. The biomineralization activity was examined by staining with alizarin red S and measuring calcium content.
The HPDL cells were plated in six-well plates at an initial density of 1×10^5 cells per well. […]
For Alizarin Red S staining, the compartments of 28 d cultured cells were fixed in 100% methanol, stained with Alizarin Red S for 10 min, then washed with ultra-pure water and photographed. […] The resulting solution was measured using a Calcium C-test kit and protocol. The absorbance at 570 nm was read with a plate reader. […]

Experiment [2] concerns human periodontal ligament (HPDL) cells. The conditions noted are these: cited from earlier work.
Experiment [3] concerns buccal dehiscence type bone defects created along the roots of the canine mandibular premolars. The experiment in a line: Cementum regeneration (CR) activity, eight-week histological analysis on buccal dehiscence model of dogs. In kind it is in vivo, beagle dogs. The conditions noted are these: for CR (cementum regeneration) activity: histological analysis eight weeks after application, buccal dehiscence model of dogs. On the procedure:
Approximately 2-year-old male beagle dogs (approximate 15 kg) were used to detect the CR activities after the applications of several enamel protein samples. They had intact dentition and a healthy periodontium. The surgical preparation of buccal dehiscence type bone defects was carried out according to the modified method of Hammarström (1997) under general anesthesia induced and maintained by an endotracheal tube with 1.5-2.0% of halothane (Takeda Yakuhin Co. LTD, Osaka, Japan) in 100% oxygen, after premedicated with intramuscular injection of the mixture of Ketamine HCl (9.8 mg/kg: Sankyo Co. LTD, Tokyo, Japan) and Xylazine HCl (0.7 mg/kg: Bayer Co. LTD, Tokyo, Japan).
Contralateral buccal mucoperiosteal flaps were raised after an intracrevicular incision extending from the first mandibular premolar to the first mandibular molar. After the removing the buccal alveolar bone plate covering the mesial root of the second premolars, the exposed periodontal ligament and cementum of these areas were completely removed by means of a dental bur. At the apical end of the defect, a notch was created to identify the apical extension of the defect, when histological analyses. The distance between the cervical margin and the apical end of the defect was standardized at about 5 mm. The exposed root dentin surfaces were conditioned for 2 min with cotton pellets soaked in a 19% EDTA solution, and then carefully rinsed with sterile saline. Then 50 μg of each enamel protein sample in 100 μl of cold sterile distilled water was applied over the entire buccal surface area of the exposed roots. Finally, the mucoperiosteal flaps were repositioned to their level prior to surgery and sutured. Distilled water was used as a negative control and EMDOGAIN® (BIORA AB, Malmö, Sweden) served as a positive control.
After 8 weeks the dogs were terminated by anesthetization with sodium pentobarbital. Their heads were fixed by perfusion with 0.1 M sodium cacodylate buffer (pH 7.4) containing 4% paraformaldehyde and 1% glutaraldehyde. Tissue blocks, which included teeth, bone, and tissue were dissected and demineralized in 10% formic acid containing 0.06 M sodium citrate and 0.1 M citric acid. All specimens were dehydrated using a graded series of alcohols and then embedded in paraffin. Serial sections (5 μm thick) were made and stained with hematoxylin/eosin for examination by light microscopy.
The length and thickness of cementums regenerated after application of fractionated and purified enamel protein samples and EMD were measured on the computer monitor of histological results. The length of the regenerated cementum was straight distance between the apical end of the defect and coronal extention of the new cementum, as well as to the crest of the new alveolar bone. Also, the thickness of cementum was measured at coronal end, apical end and between them.
CR promoting activity of enamel proteins obtained at each extracted and purified step were examined by eight-week histological analysis of buccal dehiscence type bone defects created along the roots of canine mandible (FIG. 1).

In a further experiment the test system is ST2 cells. The experiment in a line: ALP inducing activity of ST2 cells on cell culture system. In kind it is cell-based, mouse. The conditions noted are these: 50 μg/ml protein or peptide; TGF-β1 50 ng/ml, BMP-2 500 ng/ml.
Description: as §1
HPDL cells of approximately 5×10^5 cells per well were distributed in 96-well plates and incubated for 24 h. […] After 96 additional hours of incubation, ALP activity was determined using p-nitrophenylphosphate as a substrate. […]
The ALP inducing activities of synthetic peptides using the cell culture of HPDL cells and ST2 cells were examined. […] The ALP activity was determined after 10 min incubation at 37° C. and the absorbance at 405 nm was read using a plate reader, after adding 0.2 M NaOH to stop the reaction. […]

Data on five molecules can be found in patent publication US8309140B2, “Effect of porcine sheath proteins on the regeneration activity of periodontal ligament” (priority 2005, dated 2012).

Entries after “also recorded” stand apart in the source; their conditions may differ.

In the case of “FADPQGPSLPGMDF (14 aa from 157 to 170 in sequence 11; listed as Homo sapiens) [H-3]”, the “ALP activity of HPDL cells (human synthetic peptides, Example 3)” value in experiment [1] (peptides around 1 ng/ml, TGF-β1 10 ng/ml) was “enhanced dose dependently”. In addition, in the experiment with HPDL cells, the “induction of mineralization of HPDL cells (Example 3)” value is “enhanced the induction of mineralization”.
“QVEGPMVQQQVAPSEK (16 aa from 131 to 146 in sequence 10; listed as Sus scrofa) [P-1]”: the “ALP inducing activity among porcine ESP synthetic peptides (previous study)” value in experiment [2] is recorded as “highest ALP inducing activity among all the porcine ESP synthetic peptides tested”.
On to “TGF-β1: recombinant growth factor, positive control [reference compound]”, for which, in experiment [3], the “CR (cementum regeneration) activity” value is recorded as “shown to have the same activity”. In addition, in experiment [1] (10 μM SB431542, 10 nM 1α-25dihydroxy-vitamin D3), the “ALP inducing activity of HPDL cells when adding TGF-β1 receptor inhibitor SB431542” value is recorded as “inhibited distinctly”. In addition, in experiment [1] (96 h), the “ALP activity of HPDL cells (porcine sheath proteins and synthetic peptides)” value is listed as “further increased”. In addition, the “concentration for increasing ALP inducing activity of HPDL cells, molar” value in experiment [1] (calculated from molecular weight (TGF-β1 25 kDa; peptides average 1.5 kDa)) is given as 0.4 nM/liter. In addition, in experiment [1] (cell culture system), the “apt concentration for increasing ALP inducing activity of HPDL cells” value is “around 10 ng/ml”. For the same molecule, the “ALP inducing activity of HPDL cells (Example 4)” value in experiment [1] (peptides 50 μg/mL, TGF-β1 1 ng/mL, BMP-2 1 μg/mL, 10 nM 1α-25dihydroxy-vitamin D3, 96 h) is listed as “enhanced in a dose-dependent manner; also recorded: increased”. Also, the “ALP activity of ST2 cells (porcine sheath proteins and synthetic peptides)” value in the experiment on ST2 cells was “not stimulated”.

B1: 15 kDa sheath protein: N-terminal cleavage product of sheathlin containing 130 amino acids, lacks C-terminal 40 amino acids of 17 kDa sheath protein (protein)
chain: VPAFPRQPGTPGVASLSLETMRQLGSLQGLNMLSQYSRFGFGKSFNSLWMHGLLPPHSSFQWMRPREHETQQYEYSLPVHPPPLPSQPSLQPQQPGQKPFLQPTVVTSIQNPVQKGVPQPPIYQGHPPLQ
Consider B1, for which the “thickness of regenerated cementum” value in experiment [3] (eight weeks following application, measured at 3 points (apical, middle, coronal), beagle dogs) is recorded as 8.13±2.06 μm. Moreover, in experiment [3], the “CR (cementum regeneration) activity” value is recorded as “scarce CR activity”. In addition, the “ALP activity of HPDL cells (porcine sheath proteins and synthetic peptides)” value in experiment [1] (96 h) was “showed the increase of ALP inducing activity than that of 13 kDa sheath protein”; in experiment [1] (96 h, listed as 15-kDa sheath protein), “not”.

B2: 13 kDa sheath protein: sheath protein containing the 99 amino acids extending from M32 to Q130 (protein)
chain: MLSQYSRFGFGKSFNSLWMHGLLPPHSSFQWMRPREHETQQYEYSLPVHPPPLPSQPSLQPQQPGQKPFLQPTVVTSIQNPVQKGVPQPPIYQGHPPLQ
In the case of B2, in experiment [3], the “CR (cementum regeneration) activity” value is given as “do not exhibit any cementum regeneration activity”. In addition, the “ALP activity of HPDL cells (porcine sheath proteins and synthetic peptides)” value in experiment [1] (96 h) is given as “not”.
